In US4211772A, “Benzopyran glycoside acetals and ketals” (Laboratoires Sarget, priority 1977, dated 1980):
Read-outs that look alike come from different tables or passages of the source.

Columns and labels:
carragenin edema = assay: Anti-inflammatory activity: carragenin edema test; type: in vivo; settings: Rattus norvegicus, ip, saturated bicarbonate solution, read-out: % inhibition of carragenin edema; for inhibition in vivo at 50 mg/kg: 50 mg/kg i.p.; for inhibition in vivo at 100 mg/kg: 100 mg/kg i.p.
Description: Anti-inflammatory activity
This was determined by the carragenin edema test using male Wistar EOPS rats. Inflammation was induced by the injection of 0.1 ml of a suspension of 5% carragenin in physiological serum into the muscular bundle of the metatarsal region of the posterior paw of the animal. The test substance was administered i.p. in neutralized solution at the same time as the carragenin.
Edema was measured by plethysmometry at different times after the administration of the carragenin.
Tables IV and V show the percentages of inhibition as a function of time and of dosage for certain compounds of the present invention.
The above results were obtained for solutions of substantially alkaline
The reference experiments were performed using physiological serum brough
to a pH approximately the same as the pH of the solutions to be tested.

Aldose Reductase = target: T1, Aldose Reductase (Bos taurus, UniProt P16116); assay: Inhibition of aldose reductase in vitro (enzyme from beef eye lenses, glyceraldehyde substrate); type: biochemical; settings: in DMF solution, read-out: percentages of inhibition (aldose reductase); for inhibition at 100 µM: 10^-4 mole/l; for inhibition at 10 µM: 10^-5 mole/l; for inhibition at 1 µM: 10^-6 mole/l
T1 construct: The enzyme is extracted from beef eye lenses; from tissue; host or cells: beef eye lenses
Source text: Inhibition of Aldose Reductase In Vitro
The reoxidation of NADPH coupled to the enzymatic reaction was followed spectrophotometrically at 340 nm.

COMT = target: T2, COMT (Rattus norvegicus, UniProt P22734); assay: Inhibition of COMT in vitro (enzyme from rat liver, 4-nitrocatechol substrate); type: biochemical; settings: in dimethylsulfoxide solution, read-out: percentages of inhibition (COMT); for inhibition at 1000 µM: 10^-3 mole/l; for inhibition at 100 µM: 10^-4 mole/l; for inhibition at 10 µM: 10^-5 mole/l
T2 construct: The enzyme is extracted from rat liver; from tissue; host or cells: rat liver
T2 sequence (P22734 1-221 isoform P22734-2): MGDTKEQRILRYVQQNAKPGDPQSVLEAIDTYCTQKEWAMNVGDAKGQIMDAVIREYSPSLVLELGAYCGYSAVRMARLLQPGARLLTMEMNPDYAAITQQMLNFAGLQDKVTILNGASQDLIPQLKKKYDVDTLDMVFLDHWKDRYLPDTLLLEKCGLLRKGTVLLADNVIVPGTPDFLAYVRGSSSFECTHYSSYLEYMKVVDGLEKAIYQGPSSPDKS
Description: Inhibition of COMT in vitro The enzyme is extracted from rat liver by the method described by Axelrod et al, J. Biol. Chem., 233, 702(1958); its activity is measured in the presence of S-adenosyl methionine and using as substrate 4-nitrocatechol by the method described by Lee et al, J. Pharm. Sci., 66(7), 986(1977). The quantity of 4-nitrocatechol consumed was determined spectrophotometrically at 520 nm in alkaline medium.

SMILES	inhibition at 100 µM (Aldose Reductase)	inhibition at 10 µM (Aldose Reductase)	inhibition at 1 µM (Aldose Reductase)	inhibition at 1000 µM (COMT)	inhibition at 100 µM (COMT)	inhibition at 10 µM (COMT)	other results
O=c1c(O)c(-c2ccc(O)c(O)c2)oc2cc(O)cc(O)c12 [quercetin, reference compound]	–	–	–	–	–	–	inhibition in vivo at 50 mg/kg (carragenin edema; 1/2 h): 0%; inhibition in vivo at 100 mg/kg (carragenin edema; 1/2 h): 2%; inhibition in vivo at 50 mg/kg (carragenin edema; 1 h, 1 h 1/2): 0%; inhibition in vivo at 50 mg/kg (carragenin edema; 1 h, 1 h): 0%; inhibition in vivo at 100 mg/kg (carragenin edema; 1 h, 1 h 1/2): 8%; inhibition in vivo at 100 mg/kg (carragenin edema; 1 h, 1 h): 0%; inhibition in vivo at 50 mg/kg (carragenin edema; 2 h, 2 h): 0%; inhibition in vivo at 100 mg/kg (carragenin edema; 2 h, 2 h): 7%; inhibition in vivo at 50 mg/kg (carragenin edema; 3 h, 3 h): 0%; inhibition in vivo at 100 mg/kg (carragenin edema; 3 h, 3 h): 0%; inhibition in vivo at 50 mg/kg (carragenin edema; 4 h, 4 h): 0%; inhibition in vivo at 100 mg/kg (carragenin edema; 4 h, 4 h): 0%; inhibition in vivo at 50 mg/kg (carragenin edema; 5 h, 5 h): 0%; inhibition in vivo at 100 mg/kg (carragenin edema; 5 h, 5 h): 0%; inhibition in vivo at 50 mg/kg (carragenin edema; 6 h, 6 h): 0%; inhibition in vivo at 100 mg/kg (carragenin edema; 6 h, 6 h): 0%
C[C@@H]1O[C@@H](Oc2c(-c3cc(O)c(O)c(O)c3)oc3cc(O)cc(O)c3c2=O)[C@@H]2OC(C)(C)O[C@@H]2[C@H]1O [No. 14, 3-O-(2,3-O,O-isopropylidene-α-L-rhamnosyl)myricitin]	93%	83%	11%	–	–	–	–
C[C@@H]1O[C@@H](O[C@H]2[C@H](Oc3cc(O)c4c(c3)O[C@H](c3ccc(O)cc3)CC4=O)O[C@H](CO)[C@@H](O)[C@@H]2O)[C@H](O)[C@H](O)[C@H]1O [Naringin, reference compound]	33%	–	–	–	–	–	–
C[C@@H]1O[C@@H](Oc2c(-c3cc(O)c(O)c(O)c3)oc3cc(O)cc(O)c3c2=O)[C@H](O)[C@H](O)[C@H]1O [Myricitrin, reference compound]	83%	56%	9%	–	–	–	–

The next lines start with results.

inhibition at 100 µM (Aldose Reductase)	inhibition at 10 µM (Aldose Reductase)	inhibition at 1 µM (Aldose Reductase)	inhibition at 1000 µM (COMT)	inhibition at 100 µM (COMT)	inhibition at 10 µM (COMT)	SMILES	other results
80%	41%	–	80%	90%	40%	C[C@@H]1O[C@@H](OC[C@H]2O[C@@H](Oc3c(-c4ccc(O)c(O)c4)oc4cc(O)cc(O)c4c3=O)[C@H](O)[C@@H](O)[C@@H]2O)[C@@H]2OC(c3ccc(O)cc3)O[C@@H]2[C@H]1O (stereo partly drawn) [No. 23, 3-O-(2,3-O,O-p-hydroxybenzylidene-6-α-L-rhamnosyl-β-D-glucosyl)quercetin]	–
100%	92%	44%	–	81 to 83%	33 to 36%	C[C@@H]1O[C@@H](OC[C@H]2O[C@@H](Oc3c(-c4ccc(O)c(O)c4)oc4cc(O)cc(O)c4c3=O)[C@H](O)[C@@H](O)[C@@H]2O)[C@@H]2OC3(O[C@@H]2[C@H]1O)C1CC2CC(C1)CC3C2 (stereo partly drawn) [No. 33, 3-O-(2,3-O,O-adamantylidene-6-α-L-rhamnosyl-β-D-glucosyl)quercetin]	inhibition at 0.1 µM (Aldose Reductase; 10^-7 mole/l): 7%
71%	0%	–	–	–	–	O=c1ccc2cc(O[C@@H]3O[C@@H]4COC(c5ccc(O)c(O)c5)O[C@H]4[C@H](O)[C@H]3O)c(O)cc2o1 (stereo partly drawn) [No. 24, 6-O-(4,6-O,O-(3,4-dihydroxybenzylidene)-β-D-glucosyl) esculetol]	–
100%	72%	26%	90%	74%	72%	Cc1ccc(C2(C)O[C@@H]3[C@@H](O)[C@H](C)O[C@@H](OC[C@H]4O[C@@H](Oc5c(-c6ccc(O)c(O)c6)oc6cc(O)cc(O)c6c5=O)[C@H](O)[C@@H](O)[C@@H]4O)[C@@H]3O2)cc1 (stereo partly drawn) [No. 35, 3-O-(2,3-O,O-(α-methyl-p-methylbenzylidene)-6-α-L-rhamnosyl-β-D-glucosyl) quercetin]	–
67%	62%	0%	76%	52%	0%	C[C@@H]1O[C@@H](OC[C@H]2O[C@@H](Oc3c(-c4ccc(O)c(O)c4)oc4cc(O)cc(O)c4c3=O)[C@H](O)[C@@H](O)[C@@H]2O)[C@@H]2OC3(CCC4CCCCC4C3)O[C@@H]2[C@H]1O (stereo partly drawn) [No. 28, 3-O-(2,3-O,O-(2-perhydronaphthylidene)-6-α-L-rhamnosyl-β-D-glucosyl) quercetin]	–
